Details: 303.16 K, Liquid, Vibrating tube method

CCCC(=O)OCC(COC(=O)CCC)(COC(=O)CCC)COC(=O)CCC [pentaerythritol tetrabutyrate]
Details | mass density [kg/m3]
15938 kPa | 1052.3
15972 kPa | 1052.3
16014 kPa | 1052.4
16048 kPa | 1052.3
16090 kPa | 1052.4
16125 kPa | 1052.5
16167 kPa | 1052.5
16209 kPa | 1052.5
16244 kPa | 1052.5
16286 kPa | 1052.6
16323 kPa | 1052.5
16366 kPa | 1052.5
16409 kPa | 1052.7
16446 kPa | 1052.6
16489 kPa | 1052.7
16526 kPa | 1052.7
16571 kPa | 1052.7
16616 kPa | 1052.7
16654 kPa | 1052.7
16700 kPa | 1052.7
16739 kPa | 1052.8
16786 kPa | 1052.8
16833 kPa | 1052.9
16872 kPa | 1053
16906 kPa | 1052.9
16947 kPa | 1053
16988 kPa | 1052.9
17023 kPa | 1053
17065 kPa | 1053
17100 kPa | 1053
17142 kPa | 1053
17185 kPa | 1052.9
17221 kPa | 1053
17265 kPa | 1053.2
17301 kPa | 1053.1
17346 kPa | 1053.2
17383 kPa | 1053.1
17428 kPa | 1053.2
17464 kPa | 1053.2
17508 kPa | 1053.2
17552 kPa | 1053.1
17588 kPa | 1053.3
17632 kPa | 1053.3
17669 kPa | 1053.4
17713 kPa | 1053.5
17758 kPa | 1053.5
17796 kPa | 1053.4
17840 kPa | 1053.4
17887 kPa | 1053.5
17924 kPa | 1053.4
17970 kPa | 1053.5
18009 kPa | 1053.6
18056 kPa | 1053.6
18094 kPa | 1053.5
18141 kPa | 1053.6
18187 kPa | 1053.6
18226 kPa | 1053.6
18275 kPa | 1053.6
18315 kPa | 1053.9
18363 kPa | 1053.8
18405 kPa | 1053.7
18448 kPa | 1053.9
18497 kPa | 1053.9
18546 kPa | 1054
18588 kPa | 1053.9
18638 kPa | 1054
18681 kPa | 1054.1
18732 kPa | 1054
18784 kPa | 1054
18828 kPa | 1054.1
18881 kPa | 1054.2
18917 kPa | 1054
18955 kPa | 1054
18996 kPa | 1054.2
19030 kPa | 1054.2
19063 kPa | 1054.2
19103 kPa | 1054.2
19136 kPa | 1054.2
19176 kPa | 1054.3
19209 kPa | 1054.3
19248 kPa | 1054.3
19288 kPa | 1054.4
19321 kPa | 1054.3
19361 kPa | 1054.4
19395 kPa | 1054.3
19436 kPa | 1054.4
19477 kPa | 1054.5
19512 kPa | 1054.4
19553 kPa | 1054.5
19587 kPa | 1054.5
19629 kPa | 1054.5
19665 kPa | 1054.4
19707 kPa | 1054.6
19741 kPa | 1054.6
19783 kPa | 1054.5
19825 kPa | 1054.7
19861 kPa | 1054.7
19904 kPa | 1054.6
19940 kPa | 1054.8
19985 kPa | 1054.6
20021 kPa | 1054.8
20064 kPa | 1054.8
20101 kPa | 1054.9
20144 kPa | 1054.8
20189 kPa | 1054.9
20226 kPa | 1054.9
20270 kPa | 1054.9
20308 kPa | 1054.8
20479 kPa | 1055
20525 kPa | 1054.9
20562 kPa | 1055.1
20609 kPa | 1055.1
20648 kPa | 1055.1
20695 kPa | 1055.1
20735 kPa | 1055.3
20783 kPa | 1055.2
20823 kPa | 1055.3
20871 kPa | 1055.3
20911 kPa | 1055.3
20958 kPa | 1055.2
20997 kPa | 1055.3
21046 kPa | 1055.4
21087 kPa | 1055.4
21317 kPa | 1055.5
21366 kPa | 1055.5
21458 kPa | 1055.5
21510 kPa | 1055.6
21552 kPa | 1055.6
21603 kPa | 1055.7
21646 kPa | 1055.7
21698 kPa | 1055.6
21749 kPa | 1055.8
21792 kPa | 1055.7
21845 kPa | 1055.9
21889 kPa | 1055.9
21942 kPa | 1055.8
21986 kPa | 1055.9
22040 kPa | 1055.9
22093 kPa | 1056
22138 kPa | 1056
22194 kPa | 1056
22240 kPa | 1056.1
22297 kPa | 1056.1
22344 kPa | 1056.2
22399 kPa | 1056.2
22444 kPa | 1056.1
22501 kPa | 1056.1
22549 kPa | 1056.2
22606 kPa | 1056.2
22664 kPa | 1056.3
22714 kPa | 1056.3
22776 kPa | 1056.4
22829 kPa | 1056.3
22885 kPa | 1056.5
22917 kPa | 1056.4
22959 kPa | 1056.5
22993 kPa | 1056.4
23026 kPa | 1056.4
23065 kPa | 1056.6
23104 kPa | 1056.5
23137 kPa | 1056.6
23177 kPa | 1056.6
23211 kPa | 1056.7
23251 kPa | 1056.7
23285 kPa | 1056.7
23325 kPa | 1056.7
23359 kPa | 1056.7
23399 kPa | 1056.7
23440 kPa | 1056.7
23475 kPa | 1056.8
23516 kPa | 1056.9
23551 kPa | 1056.9
23593 kPa | 1056.9
23628 kPa | 1056.8
23670 kPa | 1056.9
23705 kPa | 1056.8
23747 kPa | 1056.8
23782 kPa | 1057
23825 kPa | 1057
23860 kPa | 1057
23902 kPa | 1057.1
23946 kPa | 1057.1
23981 kPa | 1057
24023 kPa | 1057.1
24066 kPa | 1057
24101 kPa | 1057.2
24145 kPa | 1057.1
24182 kPa | 1057.3
24225 kPa | 1057.1
24269 kPa | 1057.2
24306 kPa | 1057.2
24350 kPa | 1057.3
24387 kPa | 1057.4
24432 kPa | 1057.3
24470 kPa | 1057.3
24515 kPa | 1057.5
24560 kPa | 1057.4
24597 kPa | 1057.4
24642 kPa | 1057.4
24680 kPa | 1057.5
24726 kPa | 1057.6
24772 kPa | 1057.6
24810 kPa | 1057.5
24858 kPa | 1057.5
24897 kPa | 1057.6
24944 kPa | 1057.7
24991 kPa | 1057.6
25031 kPa | 1057.5
25070 kPa | 1057.7
25117 kPa | 1057.7
25165 kPa | 1057.7
25204 kPa | 1057.8
25252 kPa | 1057.8
25292 kPa | 1057.9
25340 kPa | 1057.9
25389 kPa | 1058
25431 kPa | 1057.9
25481 kPa | 1057.9
25523 kPa | 1058
25574 kPa | 1058.1
25618 kPa | 1058.1
25669 kPa | 1058
25712 kPa | 1058.1
25765 kPa | 1058.1
25816 kPa | 1058.1
25851 kPa | 1058.2
25889 kPa | 1058.2
25926 kPa | 1058.1
25957 kPa | 1058
25995 kPa | 1058.2
26027 kPa | 1058.1
26066 kPa | 1058.3
26106 kPa | 1058.3
26139 kPa | 1058.4
26171 kPa | 1058.3
26210 kPa | 1058.3
26243 kPa | 1058.4
26282 kPa | 1058.4
26320 kPa | 1058.4
26352 kPa | 1058.5
26392 kPa | 1058.5
26430 kPa | 1058.3
26463 kPa | 1058.4
26504 kPa | 1058.6
26538 kPa | 1058.6
26574 kPa | 1058.6
26615 kPa | 1058.5
26648 kPa | 1058.6
26688 kPa | 1058.6
26728 kPa | 1058.6
26761 kPa | 1058.6
26802 kPa | 1058.6
26836 kPa | 1058.7
26876 kPa | 1058.8
26918 kPa | 1058.7
26952 kPa | 1058.7
26994 kPa | 1058.8
27028 kPa | 1058.8
27070 kPa | 1058.9
27110 kPa | 1058.8
27145 kPa | 1058.8
27188 kPa | 1058.8
27223 kPa | 1059.1
27266 kPa | 1058.9
27301 kPa | 1059
27343 kPa | 1058.9
27385 kPa | 1059.2
27420 kPa | 1059
27464 kPa | 1059
27499 kPa | 1059
27542 kPa | 1059.1
27585 kPa | 1059.1
27622 kPa | 1059.2
27666 kPa | 1059.2
27702 kPa | 1059.2
27747 kPa | 1059.1
27784 kPa | 1059.3
27828 kPa | 1059.2
27865 kPa | 1059.3
27909 kPa | 1059.4
27953 kPa | 1059.4
27991 kPa | 1059.3
28035 kPa | 1059.4
28079 kPa | 1059.4
28117 kPa | 1059.3
28162 kPa | 1059.4
28200 kPa | 1059.5
28244 kPa | 1059.4
28290 kPa | 1059.5
28328 kPa | 1059.5
28374 kPa | 1059.6
28419 kPa | 1059.7

— the NIST ThermoML archive (doi:10.1021/je060271a)
